Experiments:
[1] = molecular target: T1, 5-hydroxytryptamine receptor 2C (Homo sapiens, UniProt P28335); assay: 5-HT2C Receptor Binding Inhibition Assay
T1 sequence (P28335 whole entry): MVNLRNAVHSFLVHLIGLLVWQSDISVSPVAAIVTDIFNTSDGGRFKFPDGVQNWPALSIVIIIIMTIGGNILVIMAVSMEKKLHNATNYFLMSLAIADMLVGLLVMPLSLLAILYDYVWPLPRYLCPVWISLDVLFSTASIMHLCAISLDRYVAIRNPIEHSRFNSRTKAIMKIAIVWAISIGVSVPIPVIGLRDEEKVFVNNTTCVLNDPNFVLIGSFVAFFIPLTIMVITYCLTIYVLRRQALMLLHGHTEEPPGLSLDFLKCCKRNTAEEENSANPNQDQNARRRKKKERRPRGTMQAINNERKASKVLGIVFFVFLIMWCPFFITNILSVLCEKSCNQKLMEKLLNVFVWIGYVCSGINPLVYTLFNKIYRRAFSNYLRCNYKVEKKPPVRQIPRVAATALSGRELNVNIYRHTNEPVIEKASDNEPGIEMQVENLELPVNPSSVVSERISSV
Protocol: (§1) Binding Test of the Compound According to the Present Invention:In advance, 0.5 μL of the compound solution dissolved in DMSO was dispensed into a microplate, and the cell membrane and the hot ligand were diluted with Assay buffer, respectively. Then, the Assay buffer containing the diluted cell membrane was dispensed into a microplate at 50 μL/well. Then, the radioactive ligand solution was dispensed into a microplate at 50 μL/well, and the plate was sealed. Then, it was allowed to stand at 37° C. for 2 hours. During this period, 50 mmol/L Tris-HCl (pH 7.4) was dispensed into a GF/B UniFilter plate at 50 μL/well and allowed to stand at 4° C. for 1 hour or longer. After that, filtration was performed with Cell harvester (PerkinElmer). After the GF/B UniFilter plate was dried at room temperature, MicroScinti 20 was dispensed into the GF/B UniFilter plate at 50 μL/well, and the plate was sealed. […] The radioactivity of [3H]-Mesulergine bound to the […] receptor was measured using Microbeta2 (PerkinElmer) at a measurement time of 1 min/well. The non-specific binding was calculated from the radioactivity of [3H]-Mesulergine in the presence of 500 μmol/L Serotonin HCl with the unlabeled ligand, and the total binding was calculated from the radioactivity of [3H]-Mesulergine in the absence of the compound according to the present invention (Vehicle).

[2] = molecular target: 5-hydroxytryptamine receptor 2A (Homo sapiens, UniProt P28223); assay: 5-HT2A Receptor Binding Inhibition Assay
Chain of 5-hydroxytryptamine receptor 2A (P28223 whole entry): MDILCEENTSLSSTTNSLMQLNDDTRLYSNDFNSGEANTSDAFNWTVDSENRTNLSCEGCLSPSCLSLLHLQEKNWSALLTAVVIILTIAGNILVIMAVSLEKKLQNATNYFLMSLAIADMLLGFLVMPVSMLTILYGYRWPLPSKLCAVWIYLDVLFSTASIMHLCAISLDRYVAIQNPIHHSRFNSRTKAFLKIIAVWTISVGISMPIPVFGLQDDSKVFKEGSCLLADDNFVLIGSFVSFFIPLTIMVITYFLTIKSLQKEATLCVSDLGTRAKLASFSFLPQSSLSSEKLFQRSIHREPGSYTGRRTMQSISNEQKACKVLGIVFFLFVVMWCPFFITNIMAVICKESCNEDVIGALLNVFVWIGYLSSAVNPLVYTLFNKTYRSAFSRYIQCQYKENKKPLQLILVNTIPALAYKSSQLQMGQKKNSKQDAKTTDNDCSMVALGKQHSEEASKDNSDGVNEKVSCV
Protocol: as §1, with “Present Invention: In” for “Present Invention:In”, “at room temperature (25° C.)” for “at 37° C.”, “for 1.5” for “for 2”, “(PerkinElmer).” for “(PerkinElmer). After the GF/B UniFilter plate was dried at room temperature, MicroScinti 20 was dispensed into the GF/B UniFilter plate at 50 μL/well, and the plate was sealed.”, “of [3H]-Ketanserin” for “of [3H]-Mesulergine”, “(Vehicle). Finally, the Ki value was calculated from the dose-response curve.” for “(Vehicle).”

## CC(C)CNc1ccc(CN(Cc2ccn(C)n2)C(=O)NC2CCN(C)CC2)cc1 [US20240083872, Compound I-030]
[1]
  Ki: 7.76 nM
[2]
  Ki: 2.17 nM

From BindingDB's records for patent US20240083872 (Shionogi, 2024)
